Laboratory results: patent US10172858B2, “Combination pharmaceutical compositions and uses thereof” (Intellikine LLC, priority 2011, dated 2019)
Where two headings read alike, the source gives them in different places.

What was measured:
[1] = target: PI3K γ (Homo sapiens (Human), UniProt P48736); assay: PI3K γ kinase assay; type: biochemical
[2] = target: PI3K β (Homo sapiens (Human), UniProt P42338); assay: PI3K β kinase assay; type: biochemical; conditions: Table 2
[3] = target: mTORC (Homo sapiens (Human), UniProt P42345); assay: mTORC in vitro IC50 (Table 2); type: biochemical
[4] = target: PI3K α (Homo sapiens (Human), UniProt P42336); assay: PI3K α kinase assay; type: biochemical
PI3K α, sequence (P42336 whole entry): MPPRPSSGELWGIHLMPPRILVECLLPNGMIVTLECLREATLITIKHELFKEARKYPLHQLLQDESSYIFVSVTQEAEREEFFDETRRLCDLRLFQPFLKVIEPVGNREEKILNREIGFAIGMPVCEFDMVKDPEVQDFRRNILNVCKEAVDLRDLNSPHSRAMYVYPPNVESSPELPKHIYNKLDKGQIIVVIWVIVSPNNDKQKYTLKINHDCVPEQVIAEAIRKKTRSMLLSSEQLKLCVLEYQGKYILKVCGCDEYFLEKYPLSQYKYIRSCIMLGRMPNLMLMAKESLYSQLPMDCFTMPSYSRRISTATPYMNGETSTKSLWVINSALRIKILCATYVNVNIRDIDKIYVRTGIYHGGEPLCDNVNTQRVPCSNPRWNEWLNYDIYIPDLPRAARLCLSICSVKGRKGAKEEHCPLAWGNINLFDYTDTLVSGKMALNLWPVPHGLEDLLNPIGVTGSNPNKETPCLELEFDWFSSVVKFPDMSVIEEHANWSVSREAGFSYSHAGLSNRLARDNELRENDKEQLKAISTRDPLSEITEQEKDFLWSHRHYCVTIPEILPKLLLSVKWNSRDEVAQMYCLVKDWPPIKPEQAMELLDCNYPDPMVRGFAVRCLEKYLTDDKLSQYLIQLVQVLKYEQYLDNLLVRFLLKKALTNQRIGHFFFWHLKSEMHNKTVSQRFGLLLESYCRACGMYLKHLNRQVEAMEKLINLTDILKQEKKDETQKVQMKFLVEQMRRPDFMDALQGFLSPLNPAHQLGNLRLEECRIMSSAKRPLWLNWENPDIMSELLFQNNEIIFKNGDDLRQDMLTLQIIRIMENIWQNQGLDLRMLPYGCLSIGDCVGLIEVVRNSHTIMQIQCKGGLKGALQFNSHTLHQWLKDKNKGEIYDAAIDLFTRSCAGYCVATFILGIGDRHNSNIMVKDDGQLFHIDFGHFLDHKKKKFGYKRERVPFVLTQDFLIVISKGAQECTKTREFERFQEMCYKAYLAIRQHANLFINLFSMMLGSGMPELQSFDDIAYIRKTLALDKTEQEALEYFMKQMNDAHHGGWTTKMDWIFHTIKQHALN
PI3K α, sequence (P27986 whole entry partner): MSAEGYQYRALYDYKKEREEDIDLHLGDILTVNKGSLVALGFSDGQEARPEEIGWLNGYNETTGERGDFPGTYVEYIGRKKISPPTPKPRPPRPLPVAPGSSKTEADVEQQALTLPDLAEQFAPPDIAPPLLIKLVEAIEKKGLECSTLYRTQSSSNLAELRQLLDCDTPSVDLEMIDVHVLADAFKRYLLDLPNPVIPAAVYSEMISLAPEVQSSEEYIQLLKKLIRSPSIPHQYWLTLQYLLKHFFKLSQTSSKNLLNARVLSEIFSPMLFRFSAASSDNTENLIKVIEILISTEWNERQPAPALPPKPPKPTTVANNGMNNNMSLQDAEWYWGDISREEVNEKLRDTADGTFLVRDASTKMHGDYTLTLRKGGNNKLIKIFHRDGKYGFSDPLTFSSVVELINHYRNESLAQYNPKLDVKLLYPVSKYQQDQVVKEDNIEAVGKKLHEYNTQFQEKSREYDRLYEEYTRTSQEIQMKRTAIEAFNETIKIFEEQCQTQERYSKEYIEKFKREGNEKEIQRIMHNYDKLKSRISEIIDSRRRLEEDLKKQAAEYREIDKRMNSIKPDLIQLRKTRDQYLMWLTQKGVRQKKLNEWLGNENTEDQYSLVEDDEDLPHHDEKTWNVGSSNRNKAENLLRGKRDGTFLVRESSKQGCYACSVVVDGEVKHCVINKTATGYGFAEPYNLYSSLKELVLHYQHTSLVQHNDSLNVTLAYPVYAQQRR

[5] = target: PI3K δ (Homo sapiens (Human), UniProt O00329); assay: PI3K δ kinase assay; type: biochemical
PI3K δ, sequence (O00329 whole entry, species assumed): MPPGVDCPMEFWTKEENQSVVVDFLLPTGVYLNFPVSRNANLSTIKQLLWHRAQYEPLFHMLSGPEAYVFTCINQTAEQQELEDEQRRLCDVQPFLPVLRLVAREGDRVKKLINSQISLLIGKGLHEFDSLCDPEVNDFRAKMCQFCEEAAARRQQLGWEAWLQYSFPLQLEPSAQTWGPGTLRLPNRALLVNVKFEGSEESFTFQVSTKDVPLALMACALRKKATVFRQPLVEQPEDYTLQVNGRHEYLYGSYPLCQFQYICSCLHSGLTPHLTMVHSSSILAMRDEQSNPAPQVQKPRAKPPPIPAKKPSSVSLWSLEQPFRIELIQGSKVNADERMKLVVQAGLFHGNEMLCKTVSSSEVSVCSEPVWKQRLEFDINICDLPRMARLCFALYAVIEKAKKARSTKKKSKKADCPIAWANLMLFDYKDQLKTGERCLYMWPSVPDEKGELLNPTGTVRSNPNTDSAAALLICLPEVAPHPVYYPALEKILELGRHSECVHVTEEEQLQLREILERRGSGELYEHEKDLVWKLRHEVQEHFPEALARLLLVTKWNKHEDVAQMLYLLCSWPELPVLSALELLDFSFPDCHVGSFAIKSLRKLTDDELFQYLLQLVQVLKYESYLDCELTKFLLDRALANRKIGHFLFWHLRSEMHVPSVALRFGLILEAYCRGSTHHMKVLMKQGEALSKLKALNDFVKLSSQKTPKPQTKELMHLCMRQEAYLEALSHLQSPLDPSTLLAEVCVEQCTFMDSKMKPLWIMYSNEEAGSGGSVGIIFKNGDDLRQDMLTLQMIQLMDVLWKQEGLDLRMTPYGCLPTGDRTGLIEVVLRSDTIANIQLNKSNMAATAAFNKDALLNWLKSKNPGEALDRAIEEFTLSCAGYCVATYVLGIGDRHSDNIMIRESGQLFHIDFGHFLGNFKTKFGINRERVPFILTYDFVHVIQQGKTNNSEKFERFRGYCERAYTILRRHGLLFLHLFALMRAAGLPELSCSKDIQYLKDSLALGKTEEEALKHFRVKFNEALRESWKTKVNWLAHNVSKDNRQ
PI3K δ, sequence (P27986 whole entry partner, species assumed): as the sequence (P27986 whole entry partner) above

[6] = tested on: PC3; assay: PC3 tumor cell line proliferation assay; type: cell-based; conditions: Homo sapiens, PC-3; for IC50: Table 2, in vitro IC50; for EC50: Table 1

PI3K γ, sequence (P48736 whole entry, species assumed): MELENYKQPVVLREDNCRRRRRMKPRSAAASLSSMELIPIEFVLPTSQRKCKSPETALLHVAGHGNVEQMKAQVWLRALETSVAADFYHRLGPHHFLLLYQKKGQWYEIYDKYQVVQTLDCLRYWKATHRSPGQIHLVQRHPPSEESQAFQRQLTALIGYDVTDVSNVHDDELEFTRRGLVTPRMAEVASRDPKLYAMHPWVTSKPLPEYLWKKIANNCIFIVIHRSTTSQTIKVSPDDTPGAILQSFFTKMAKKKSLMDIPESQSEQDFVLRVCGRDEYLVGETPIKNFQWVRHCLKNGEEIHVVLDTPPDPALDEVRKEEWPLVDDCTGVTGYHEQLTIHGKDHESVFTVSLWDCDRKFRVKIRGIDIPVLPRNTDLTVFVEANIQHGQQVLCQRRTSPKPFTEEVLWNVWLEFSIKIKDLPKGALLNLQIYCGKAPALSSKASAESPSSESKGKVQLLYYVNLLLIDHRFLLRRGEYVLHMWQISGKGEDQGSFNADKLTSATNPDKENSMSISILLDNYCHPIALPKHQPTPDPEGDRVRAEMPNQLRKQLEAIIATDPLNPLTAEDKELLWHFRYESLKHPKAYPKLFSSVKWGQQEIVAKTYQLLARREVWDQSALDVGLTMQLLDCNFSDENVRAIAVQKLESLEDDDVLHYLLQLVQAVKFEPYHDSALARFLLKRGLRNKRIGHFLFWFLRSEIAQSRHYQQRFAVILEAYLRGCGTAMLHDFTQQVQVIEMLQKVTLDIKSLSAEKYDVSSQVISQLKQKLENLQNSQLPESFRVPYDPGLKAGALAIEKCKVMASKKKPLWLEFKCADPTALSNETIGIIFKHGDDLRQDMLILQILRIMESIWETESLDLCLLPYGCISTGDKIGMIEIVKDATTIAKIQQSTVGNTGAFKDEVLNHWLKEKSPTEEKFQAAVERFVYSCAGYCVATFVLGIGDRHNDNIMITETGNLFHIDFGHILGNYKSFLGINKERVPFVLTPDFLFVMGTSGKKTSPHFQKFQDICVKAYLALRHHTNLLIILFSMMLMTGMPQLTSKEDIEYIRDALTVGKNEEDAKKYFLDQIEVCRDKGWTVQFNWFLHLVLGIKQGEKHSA
PI3K β, sequence (P42338 whole entry, species assumed): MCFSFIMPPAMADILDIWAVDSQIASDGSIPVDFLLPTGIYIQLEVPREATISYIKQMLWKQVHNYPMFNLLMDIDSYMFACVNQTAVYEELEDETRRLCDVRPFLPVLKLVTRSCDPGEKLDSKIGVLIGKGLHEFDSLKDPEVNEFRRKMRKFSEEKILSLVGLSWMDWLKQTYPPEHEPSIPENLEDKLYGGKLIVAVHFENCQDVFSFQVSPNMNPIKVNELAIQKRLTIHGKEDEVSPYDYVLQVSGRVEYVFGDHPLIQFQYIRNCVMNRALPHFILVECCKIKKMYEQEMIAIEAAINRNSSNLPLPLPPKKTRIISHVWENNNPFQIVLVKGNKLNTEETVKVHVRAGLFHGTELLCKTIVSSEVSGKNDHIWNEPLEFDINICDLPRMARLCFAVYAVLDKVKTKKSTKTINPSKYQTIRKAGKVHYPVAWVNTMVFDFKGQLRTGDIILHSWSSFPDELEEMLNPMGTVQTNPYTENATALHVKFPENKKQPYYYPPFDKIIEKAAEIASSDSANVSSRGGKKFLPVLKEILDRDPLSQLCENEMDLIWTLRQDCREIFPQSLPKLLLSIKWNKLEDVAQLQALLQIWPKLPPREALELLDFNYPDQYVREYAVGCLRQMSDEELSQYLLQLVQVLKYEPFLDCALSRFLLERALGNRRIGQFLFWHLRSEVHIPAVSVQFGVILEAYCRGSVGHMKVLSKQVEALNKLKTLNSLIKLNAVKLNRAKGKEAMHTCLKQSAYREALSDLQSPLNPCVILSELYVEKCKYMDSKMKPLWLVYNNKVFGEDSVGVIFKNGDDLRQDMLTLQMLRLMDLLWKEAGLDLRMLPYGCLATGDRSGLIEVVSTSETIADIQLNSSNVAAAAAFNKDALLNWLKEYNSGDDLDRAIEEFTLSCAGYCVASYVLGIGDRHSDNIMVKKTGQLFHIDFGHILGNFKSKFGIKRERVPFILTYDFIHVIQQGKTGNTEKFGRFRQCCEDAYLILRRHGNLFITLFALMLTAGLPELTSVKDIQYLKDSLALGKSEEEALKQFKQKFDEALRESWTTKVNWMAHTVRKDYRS
PI3K β, sequence (P27986 whole entry partner, species assumed): as the sequence (P27986 whole entry partner) above

Row | IC50 [6] [µM] | Compound | IC50 ([1]; Table 2) [µM] | IC50 [3] [µM] | IC50 ([4]; Table 2) [µM] | further results
1 | > 0.5 | CC(C)n1nc(-c2cc3ccc(C(N)=O)cc3[nH]2)c2c(N)ncnc21 [Compound 25] | – | – | – | –
2 | > 0.5 | CC(C)n1nc(-c2cc3cc(Cl)ccc3[nH]2)c2c(N)ncnc21 [Compound 17] | – | – | – | –
3 | < 0.5 | CC(C)n1nc(-c2cc3cc(O)cc(F)c3[nH]2)c2c(N)ncnc21 [Compound 16] | – | – | – | –
4 | < 0.05 | CC(C)n1nc(-c2cc3cc(O)cc(Cl)c3[nH]2)c2c(N)ncnc21 [Compound 15] | – | – | – | –
5 | > 0.5 | COc1ccc2cc(-c3nn(C(C)C)c4ncnc(N)c34)[nH]c2c1 [Compound 8] | – | – | – | –
6 | < 0.5 | Nc1ncnc2c1c(-c1cc3cc(O)ccc3[nH]1)nn2C1CCCCC1 [Compound 26] | – | – | – | –
7 | > 0.5 | COc1cc(Cl)c2[nH]c(-c3nn(C(C)C)c4ncnc(N)c34)cc2c1 [Compound 13] | – | – | – | –
8 | > 0.5 | CC(C)n1nc(-c2cc3ccccc3[nH]2)c2c(N)ncnc21 [Compound 7] | – | – | – | –
9 | > 0.5 | CC(C)n1nc(-c2cc3c(Cl)cccc3[nH]2)c2c(N)ncnc21 [Compound 9] | – | – | – | –
10 | > 0.5 | CC(C)n1nc(-c2cc3ccc(O)cc3[nH]2)c2c(N)ncnc21 [Compound 21] | – | – | – | –
11 | < 0.05 | CC(C)n1nc(-c2cc3cccc(O)c3[nH]2)c2c(N)ncnc21 [Compound 11] | – | – | – | –
12 | > 0.5 | COc1ccc2[nH]c(-c3nn(C(C)C)c4ncnc(N)c34)cc2c1 [Compound 5] | – | – | – | –
13 | < 0.5 | Nc1ncnc2c1c(-c1cc3cc(O)ccc3[nH]1)nn2C1CCC1 [Compound 27] | – | – | – | –
14 | < 0.05 | Nc1ncnc2c1c(-c1cc3cc(O)ccc3[nH]1)nn2C1CCCC1 [Compound 12] | – | – | – | –

The remaining lines, values behind:

Row | Compound | IC50 [6] [µM] | IC50 ([1]; Table 2) [µM] | IC50 [3] [µM] | IC50 ([4]; Table 2) [µM] | further results
15 | Nc1ncnc2c1c(-c1cc3ccc(O)cc3[nH]1)nn2C1CCOCC1 [Compound 60] | – | < 0.1 | < 0.1 | > 0.5 | IC50 [2]: > 0.5 µM
16 | Cc1nccn1CCn1nc(-c2cc3cc(O)ccc3[nH]2)c2c(N)ncnc21 [Compound 44] | – | – | < 0.1 | > 0.5 | IC50 [2]: > 0.5 µM; IC50 [5]: > 0.5 µM
17 | Nc1nc2cc(-c3nn(C4CCOCC4)c4ncnc(N)c34)ccc2o1 [Compound 5] | – | – | – | – | EC50 [6]: < 0.1 µM
18 | COCCn1nc(-c2cc3cc(O)ccc3[nH]2)c2c(N)ncnc21 [Compound 40] | > 0.5 | > 0.5 | < 0.1 | > 0.5 | IC50 [5]: > 0.5 µM
19 | Nc1ncnc2c1c(-c1cc3cc(O)ccc3[nH]1)nn2C1CC(=O)C1 [Compound 53] | – | > 0.5 | < 0.1 | > 0.5 | IC50 [2]: > 0.5 µM
20 | CC(=O)N1CCC(n2nc(-c3cc4cc(O)ccc4[nH]3)c3c(N)ncnc32)CC1 [Compound 30] | > 0.5 | – | < 0.025 | – | IC50 [2]: > 0.5 µM; IC50 ([5]; Table 2): > 0.5 µM; IC50 [4]: > 0.5 µM
21 | CC(C)N1CCC(n2nc(-c3cc4cc(O)ccc4[nH]3)c3c(N)ncnc32)CC1 [Compound 55] | – | > 0.5 | < 0.5 | > 0.5 | IC50 [2]: > 0.5 µM
22 | CC(C)n1nc(-c2cc3ccccc3n2C)c2c(N)ncnc21 [Compound 6] | > 0.5 | – | – | – | –
23 | CCOC(=O)Cn1nc(-c2cc3cc(O)ccc3[nH]2)c2c(N)ncnc21 [Compound 28] | > 0.5 | – | < 0.5 | > 0.5 | IC50 [2]: > 0.5 µM; IC50 ([5]; Table 2): > 0.5 µM
24 | Nc1ncnc2c1c(-c1cc3cc(O)ccc3[nH]1)nn2CC(=O)N1CCOCC1 [Compound 34] | – | > 0.5 | > 0.5 | > 0.5 | IC50 ([5]; Table 2): > 0.5 µM
25 | COc1ccc2cc(-c3nn(C4CCOCC4)c4ncnc(N)c34)[nH]c2c1 [Compound 59] | – | > 0.5 | > 0.5 | > 0.5 | IC50 [2]: > 0.5 µM
26 | CC(C)n1nc(-c2cc3cc(O)ccc3[nH]2)c2c(N)nccc21 [Compound 45] | – | – | > 0.5 | – | –
27 | CC(=O)Nc1nc2cc(-c3nn(C(C)C)c4ncnc(N)c34)ccc2o1 [Compound 2] | – | – | – | – | EC50 [6]: < 1 µM
28 | CC(C)n1nc(-c2ccc3nc(N)oc3c2)c2c(N)ncnc21 [Compound 4] | – | – | – | – | EC50 [6]: < 10 µM
29 | Nc1ncnc2c1c(-c1cc3cc(O)ccc3[nH]1)nn2C1CC(O)C1 (stereo not drawn) [Compound 54] | – | > 0.5 | < 0.025 | > 0.5 | IC50 [2]: > 0.5 µM
30 | CC(C)n1nc(-c2ccc3c(N)noc3c2)c2c(N)ncnc21 [Compound 12] | – | – | – | – | EC50 [6]: > 10 µM
31 | CC(C)n1nc(-c2cc3ccc(C#N)cc3[nH]2)c2c(N)ncnc21 [Compound 24] | > 0.5 | – | – | – | –
32 | CC(C)N1CCC(n2nc(-c3cc4cc(O)cc(Cl)c4[nH]3)c3c(N)ncnc32)CC1 [Compound 56] | – | > 0.5 | > 0.5 | > 0.5 | IC50 [2]: > 0.5 µM

Row | Compound | IC50 [6] [µM] | IC50 ([1]; Table 2) [µM] | IC50 [3] [µM] | IC50 ([4]; Table 2) [µM] | further results
33 | Nc1ncnc2c1c(-c1cc3cc(O)ccc3[nH]1)nn2CCN1CCOCC1 [Compound 33] | > 0.5 | > 0.5 | < 0.5 | > 0.5 | IC50 ([5]; Table 2): > 0.5 µM
34 | CC(C)n1cc(-c2ccc3oc(N)nc3c2)c2c(N)ncnc21 [Compound 8] | – | – | – | – | EC50 [6]: < 0.1 µM
35 | Nc1ncnc2c1c(-c1cc3cc(O)ccc3[nH]1)nn2Cc1cccnc1 [Compound 38] | > 0.5 | – | < 0.5 | > 0.5 | IC50 [1]: > 0.5 µM; IC50 ([5]; Table 2): > 0.5 µM
36 | Nc1nc2cc(-c3cn(C4CCOCC4)c4ncnc(N)c34)ccc2o1 [Compound 9] | – | – | – | – | EC50 [6]: < 0.1 µM
37 | CC(C)n1nc(-c2ccc3onc(N)c3c2)c2c(N)ncnc21 [Compound 10] | – | – | – | – | EC50 [6]: > 10 µM
38 | CN1CCN(C2CCC(n3nc(-c4cc5cc(O)ccc5[nH]4)c4c(N)ncnc43)CC2)CC1 (stereo not drawn) [Compound 58] | – | > 0.5 | > 0.5 | – | IC50 [2]: > 0.5 µM; IC50 [4]: > 0.5 µM
39 | CC(C)n1nc(-c2cc3c(O)cccc3[nH]2)c2c(N)ncnc21 [Compound 37] | – | < 0.5 | > 0.5 | < 0.5 | IC50 ([5]; Table 2): < 0.5 µM
40 | CNC(=O)CCn1nc(-c2cc3cc(O)ccc3[nH]2)c2c(N)ncnc21 [Compound 43] | – | – | > 0.5 | > 0.5 | IC50 [2]: > 0.5 µM; IC50 ([5]; Table 2): > 0.5 µM
41 | Nc1ncnc2c1c(-c1cc3cc(O)ccc3[nH]1)nn2C1CCC(N2CCOCC2)CC1 (stereo not drawn) [Compound 57] | – | > 0.5 | < 0.025 | > 0.5 | IC50 [2]: > 0.5 µM
42 | Nc1ncnc2c1c(-c1cc3cccc(O)c3[nH]1)nn2C1CCCC1 [Compound 36] | < 0.1 | < 0.1 | < 0.01 | > 0.5 | IC50 ([5]; Table 2): < 0.5 µM
43 | CC(C)n1nc(-c2cc3c(Cl)ccc(O)c3[nH]2)c2c(N)ncnc21 [Compound 39] | > 0.5 | > 0.5 | < 0.01 | > 0.5 | IC50 ([5]; Table 2): > 0.5 µM
44 | CC(C)n1nc(-c2cc3cc(O)c(Cl)cc3[nH]2)c2c(N)ncnc21 [Compound 32] | > 0.5 | > 0.5 | < 0.5 | – | IC50 ([5]; Table 2): > 0.5 µM; IC50 [4]: > 0.5 µM
45 | CNC(=O)Cn1nc(-c2cc3cc(O)ccc3[nH]2)c2c(N)ncnc21 [Compound 35] | – | > 0.5 | > 0.5 | > 0.5 | IC50 ([5]; Table 2): > 0.5 µM
46 | CC(=O)N1CCC(n2nc(-c3ccc4oc(N)nc4c3)c3c(N)ncnc32)CC1 [Compound 7] | – | – | – | – | EC50 [6]: < 10 µM
47 | CC(=O)Nc1noc2cc(-c3nn(C(C)C)c4ncnc(N)c34)ccc12 [Compound 11] | – | – | – | – | EC50 [6]: > 10 µM
48 | Nc1nc2cc(-c3nn(C4CCC(N5CCOCC5)CC4)c4ncnc(N)c34)ccc2o1 (stereo not drawn) [Compound 6] | – | – | – | – | EC50 [6]: < 1 µM
49 | COc1cc2cc(-c3nn(C(C)C)c4ncnc(N)c34)[nH]c2cc1Cl [Compound 29] | – | – | > 0.5 | – | –
